From ChEMBL document CHEMBL1159239, “Patellamide F, A new cytotoxic cyclic peptide from the colonial ascidian Lissoclinum patella” (1995)

Test: Cytotoxicity against human NCI60 cells
Assay type: functional
Details: read-out: LC50 (the source's name)

Compared with CC[C@H](C)[C@@H]1NC(=O)c2csc(n2)[C@@H](C)NC(=O)[C@H]2N=C(O[C@@H]2C)[C@H](CC(C)C)NC(=O)c2csc(n2)[C@@H](Cc2ccccc2)NC(=O)[C@H]2N=C1O[C@@H]2C [PATELLAMIDE B], CC(C)[C@@H]1NC(=O)c2csc(n2)[C@@H](C(C)C)NC(=O)[C@H]2N=C(O[C@@H]2C)[C@H](C(C)C)NC(=O)c2csc(n2)[C@@H](Cc2ccccc2)NC(=O)[C@@H]2COC1=N2 [PATELLAMIDE F] is 3.7-fold higher in CC50: 13 µM for the first, 48 µM for the second.

With CC(C)C[C@H]1NC(=O)[C@H]2N=C(O[C@@H]2C)[C@H]2CSSC[C@@H](NC(=O)c3csc1n3)C1=N[C@H](C(=O)N[C@H](CC(C)C)c3nc(cs3)C(=O)N2)[C@@H](C)O1 [ULITHIACYCLAMIDE] the CC50 was 3 µM.
